Results: patent US9040501B2, “Compositions and methods for treating cancer” (Eisai Inc., priority 2009, dated 2015)
Read-outs that look alike come from different tables or passages of the source. Marks after values point to notes of the source that are not given here. Each block holds one compound with its values, some of them ahead of it.

Columns and labels:
[1] = Pharmacokinetics in mice after IV and PO administrations; format: in vivo, male BALB-c mice
Method: […]. All doses were prepared in phosphate buffered saline (PBS) and were administered at a volume of 5 mL/kg. Five mice per group were used in these studies. Blood samples were taken serially from the tail vein of each mouse at predetermined timepoints. Blood samples from all mice in each group were pooled together prior to processing for plasma. The pooled blood samples were spun down within 30-60 minutes after withdrawal and the plasma was harvested and frozen for assay. After preparation and extraction the samples were assayed by LC/MS/MS.

[2] = Stability in simulated gastric fluid at 37° C. (HPLC); format: physicochemical;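 on % ER-876400 (peak retention time: 1.46 min): percent of total sample signal attributed to the analyte peak at each sampling time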
Description: […]. See Kararli, T. T. Comparison of the GI anatomy, physiology, and biochemistry of humans and commonly used laboratory animals. BioPharm & DrugDispos. 16:351-380, 1995, which is hereby wholly incorporated by reference. The gastric pH in fasted monkeys has been reported to have a similar range of 1-3. See Kondo, H. et al. Characteristics of the gastric pH profiles of unfed and fed cynomolgus monkeys as pharmaceutical product development subjects. BioPharm & DrugDispos. 24:45-51, 2003, which is hereby wholly incorporated by reference.
Materials: Simulated gastric fluid (SGF) was prepared by mixing the following into 100 mL of HPLC grade (or purified) water: 200 mg of sodium chloride and 1.87 mL of a 37.52% HCl stock solution.
The HPLC analyses were conducted using a Waters UPLC solvent delivery system with Corona CAD detection. The HPLC Column (Waters Atlantis HHS T3 2.1×100 mm, 1.8 um) was maintained at 40° C. and preequilibrated with a solution containing 98% water and 2% acetonitrile. The temperature controlled auto-sampler was maintained at 37° C. The flow rate for the Water/MeCN mobile phase was 0.65 mL/min, with a gradient following sample injection (5 μL) as follows: […]
The Water/MeCN mobile phase was applied to the column with the above described flow rate and gradient and the HPLC chromatograms were collected. After 3.5 minutes, the column was reequilibrated with 98% water/2% MeCN for 1.5 minutes.

murine lymphoma L1210 [3] = conditions: for Mean Survival (days) ± SD: twice a day (8 hours apart), 4 days
Method: Or, a stock of L1210 ascites in BSA solution was diluted to 1×10^4 cells/0.1 ml for use in the study mice.
(§1) The mice were prepared with intravenous (IV) injection of L1210 ascites (prepared as described above) one day prior to commencing the dosing. […] The total IV injection for all mice took about 50 minutes.
All solutions were stored on ice while dosing. Mice were dosed (intraperitoneally (IP) or per os (orally, PO)) twice a day (8 hours apart) for 4 consecutive days.
(§2) Dead mice were autopsied and observed for the presence of tumors in organs.

murine lymphoma L1210 [4] = conditions: for Mean Liver wts (g) ± SD / Mean Spleen wts (g) ± SD: on autopsy; for % ILS (Increased Life Span): vs vehicle group
Method: Preparation of L1210 Cells: L1210 ascitic cells were prepared by passaging them in mice at least three times as follows. Each CD2F1 female mouse was intraperitoneally (IP) injected with about 10^5 L1210 ascitic cells. After one week, the mouse was sacrificed (asphyxiation via CO2). The mouse was placed on its back, its belly surface was cleaned with alcohol wipes, and a small incision was made into the peritoneal cavity. […] Diluted ascites (diluted 1:10 again) were counted on a hematocytometer and the number of cells per mL was calculated. About 10^5 L1210 cells were used for a subsequent passage for another mouse passage. Or, a stock of L1210 ascites in BSA solution was diluted to 1×10^4 cells/0.1 ml for use in the study mice.
as §1
Decitabine was prepared fresh twice a day, just prior to dosing. All solutions were stored on ice while dosing. Mice were dosed (intraperitoneally (IP) or per os (orally, PO)) twice a day (8 hours apart) for 4 consecutive days.
as §2
Preparation of study mice with IV injection of L1210 ascites took about 60 minutes. […] All solutions were stored on ice while dosing. Mice were dosed (IP or PO) twice a day (7 or 8 hours apart) for 4 consecutive days.

cytidine deaminase (CDA) = cytidine deaminase (CDA) (Homo sapiens (Human), UniProt P32320); experiment: Effect of ER-876437 on the half-life of decitabine in the presence of CDA in Tris-HCl buffer at 37° C.; format: biochemical; conditions: for half-life at 0.2 mM: pH 7.4, Estimated T1/2 of decitabine
cytidine deaminase (CDA), sequence (P32320 whole entry): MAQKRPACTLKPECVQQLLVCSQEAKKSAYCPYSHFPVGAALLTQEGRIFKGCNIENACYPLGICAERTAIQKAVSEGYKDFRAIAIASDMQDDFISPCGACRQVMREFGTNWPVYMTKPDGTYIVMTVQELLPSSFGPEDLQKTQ
Method: The solvent delivery system employed an HPLC quaternary pump, low pressure mixing. An autosampler having a variable loop, 0.1 to 100 μL range and temperature controlled thermostat was used. […] Degassed HPLC grade water and degassed HPLC grade acetonitrile were used as solvents for the mobile phases. […] [table]

CDA = CDA (Homo sapiens (Human), UniProt P32320); conditions: deamination by CDA; Chabot et al. 1983, Bouffard et al. 1993; cited from earlier work
CDA, sequence (P32320 whole entry): as above

[5] = male, BALB-c, mouse, plasma, 10 mg/kg IV
[6] = male, BALB-c, mouse, plasma, 10 mg/kg IV, read-out: Plasma concentrations
[7] = male, BALB-c, mouse, plasma, 10 mg/kg PO, read-out: Plasma concentrations
[8] = Veh/decitabine 0.1 mg/kg PO, on autopsy
[9] = Veh/decitabine 0.1 mg/kg PO (7 hours apart)
[10] = Veh/decitabine 0.1 mg/kg PO (8 hr.)

AUC0-∞ ([1]; 10 mg/kg IV): 20999 ng·h/mL
AUC0-∞/D ([1]; 10 mg/kg IV): 2100 ng · hr/mL/D
AUCExtrap ([1]; 10 mg/kg IV): 10.3%
CL ([1]; 10 mg/kg IV): 8 mL/min/kg
dose-normalized exposures (AUC0-∞) ([1]; 10 mg/kg IV): 2100 ng·h/mL per mg/kg
t1/2 ([1]; 10 mg/kg IV): 16.1 h
Plasma concentrations ([1]; 10 mg/kg IV, 2 hr): 1753 ^a ng/mL
AUC(0-t) ([1]; 10 mg/kg PO): 13160 ng·h/mL
AUC(0-inf) [1, 5]: 21000 ng·h/mL
clearance [1, 5]: 8 mL/min/kg
half-life [1, 5]: 16.1 h
concentration at 0.167 hr [1, 6]: 19900 ng/mL
concentration at 0.5 hr [1, 6]: 10200 ng/mL
concentration at 1 hr [1, 6]: 4210 ng/mL
concentration at 4 hr [1, 6]: 495 ng/mL
concentration at 6 hr [1, 6]: 118 ng/mL
concentration at 8 hr [1, 6]: 59 ng/mL
concentration at 24 hr [1, 6]: 93 ng/mL
AUC(0-t) ([1]; male, BALB-c, mouse, plasma, 10 mg/kg IV, read-out: AUC0-t): 18800 ng·h/mL
Vd ([1]; male, BALB-c, mouse, plasma, 10 mg/kg IV, read-out: Vss): 3.2 L/kg
Cmax ([1]; male, BALB-c, mouse, plasma, 10 mg/kg PO): 7860 ng/mL
bioavailability ([1]; male, BALB-c, mouse, plasma, 10 mg/kg PO vs IV, calculated based on AUC0-t, read-out: F (bioavailability)): 69.9%
concentration at 0.167 hr [1, 7]: 7100 ng/mL
concentration at 0.5 hr [1, 7]: 7860 ng/mL
concentration at 1 hr [1, 7]: 4660 ng/mL
concentration at 2 hr ([1]; male, BALB-c, mouse, plasma, 10 mg/kg PO, 2 hr, read-out: Plasma concentrations): 1750 ng/mL
concentration at 4 hr [1, 7]: 320 ng/mL
concentration at 6 hr [1, 7]: 87 ng/mL
concentration at 8 hr [1, 7]: 44 ng/mL
concentration at 24 hr [1, 7]: 264 ng/mL
AUC(0-t) ([1]; male, BALB-c, mouse, plasma, 10 mg/kg PO, read-out: AUC0-t): 13200 ng·h/mL
% ER-876400 (peak retention time: 1.46 min) ([2]; SGF at 37° C., analysis time 0:00:30): 19.59%
% ER-876400 (peak retention time: 1.46 min) ([2]; SGF at 37° C., analysis time 0:06:08): 17.04%
% ER-876400 (peak retention time: 1.46 min) ([2]; SGF at 37° C., analysis time 0:11:45): 16.72%
% ER-876400 (peak retention time: 1.46 min) ([2]; SGF at 37° C., analysis time 0:17:23): 15.17%
% ER-876400 (peak retention time: 1.46 min) ([2]; SGF at 37° C., analysis time 0:23:01): 14.20%
% ER-876400 (peak retention time: 1.46 min) ([2]; SGF at 37° C., analysis time 0:28:38): 13.23%
% ER-876400 (peak retention time: 1.46 min) ([2]; SGF at 37° C., analysis time 0:34:16): 12.51%
% ER-876400 (peak retention time: 1.46 min) ([2]; SGF at 37° C., analysis time 0:39:54): 14.05%
% ER-876400 (peak retention time: 1.46 min) ([2]; SGF at 37° C., analysis time 0:45:33): 11.42%
% ER-876400 (peak retention time: 1.46 min) ([2]; SGF at 37° C., analysis time 0:51:10): 10.71%
% ER-876400 (peak retention time: 1.46 min) ([2]; SGF at 37° C., analysis time 0:56:48): 8.87%
% ER-876400 (peak retention time: 1.46 min) ([2]; SGF at 37° C., analysis time 1:02:27): 9.14%
% ER-876400 (peak retention time: 1.46 min) ([2]; SGF at 37° C., analysis time 1:08:07): 8.81%
% ER-876400 (peak retention time: 1.46 min) ([2]; SGF at 37° C., analysis time 1:13:46): 7.66%
% ER-876400 (peak retention time: 1.46 min) ([2]; SGF at 37° C., analysis time 1:19:23): 4.05%
% ER-876400 (peak retention time: 1.46 min) ([2]; SGF at 37° C., analysis time 1:25:01): 6.44%
% ER-876400 (peak retention time: 1.46 min) ([2]; SGF at 37° C., analysis time 1:30:38): 5.92%
% ER-876400 (peak retention time: 1.46 min) ([2]; SGF at 37° C., analysis time 1:36:16): 5.72%
% ER-876400 (peak retention time: 1.46 min) ([2]; SGF at 37° C., analysis time 1:41:53): 5.69%
% ER-876400 (peak retention time: 1.46 min) ([2]; SGF at 37° C., analysis time 1:47:32): 4.98%
% ER-876400 (peak retention time: 1.46 min) ([2]; SGF at 37° C., analysis time 1:53:10): 4.51%
% ER-876400 (peak retention time: 1.46 min) ([2]; SGF at 37° C., analysis time 1:58:49): 3.85%
% ER-876400 (peak retention time: 1.46 min) ([2]; SGF at 37° C., analysis time 2:04:28): 3.59%
% ER-876400 (peak retention time: 1.46 min) ([2]; SGF at 37° C., analysis time 2:21:24): 2.82%
% ER-876400 (peak retention time: 1.46 min) ([2]; SGF at 37° C., analysis time 2:49:37): 1.52%
% ER-876400 (peak retention time: 1.46 min) ([2]; SGF at 37° C., analysis time 3:17:48): 0.81%
% ER-876400 (peak retention time: 1.46 min) ([2]; SGF at 37° C., analysis time 3:23:28): 0.62%
% ER-876400 (peak retention time: 1.46 min) ([2]; SGF at 37° C., analysis time 3:46:00): 0.39%
% ER-876400 (peak retention time: 1.46 min) ([2]; SGF at 37° C., analysis time 3:51:38): 0.25%
% ER-876400 (peak retention time: 1.46 min) ([2]; analysis time 0:00:00, initial sample in water): 84.04%
time to degrade by 50% ([2]; simulated gastric fluid (pH 1.45) at 37° C.): less than 30 seconds
SMILES: O=C1NCC=CCN1[C@@H]1O[C@H](CO)[C@@H](O)[C@H]1O [ER-876400, (Z)-3,4-dihydro-1-((2R,3R,4S,5R)-tetrahydro-3,4-dihydroxy-5-(hydroxymethyl)furan-2-yl)-1H-1,3-diazepin-2(7H)-one, reference compound]

SMILES: Nc1ncn([C@H]2C[C@H](O)[C@@H](CO)O2)c(=O)n1 [decitabine, 5-aza-2′-deoxycytidine]
Mean Survival (days) ± SD (murine lymphoma L1210 [3]; Veh/decitabine 0.1 mg/kg IP): 13.4 ± 0.89 days
Mean Liver wts (g) ± SD (murine lymphoma L1210 [3]; [8]): 2.17 ± 0.1 g
Mean Spleen wts (g) ± SD (murine lymphoma L1210 [3]; [8]): 0.34 ± 0.04 g
Mean Survival (days) ± SD (murine lymphoma L1210 [3]; Veh/decitabine 0.1 mg/kg PO): 11.2 ± 0.45 days
% ILS (Increased Life Span) (murine lymphoma L1210 [3]; Veh/decitabine 0.1 mg/kg PO, vs vehicle group): 51.35%
difference in survival when dosed 7 or 8 hours apart (murine lymphoma L1210 [4]; 0.1 mg/kg decitabine PO twice a day, 4 days): no difference in survival
Mean Survival (days) ± SD (murine lymphoma L1210 [4]; Veh/decitabine 0.1 mg/kg IP, twice a day (7 hours apart), 4 days): 13.6 ± 0.55 days
Mean Liver wts (g) ± SD (murine lymphoma L1210 [4]; [9]): 2.02 ± 0.31 g
Mean Spleen wts (g) ± SD (murine lymphoma L1210 [4]; [9]): 0.36 ± 0.11 g
% ILS (Increased Life Span) (murine lymphoma L1210 [4]; [9]): 47.50%
Mean Liver wts (g) ± SD (murine lymphoma L1210 [4]; [10]): 1.81 ± 0.41 g
Mean Spleen wts (g) ± SD (murine lymphoma L1210 [4]; [10]): 0.33 ± 0.06 g
Mean Survival (days) ± SD (murine lymphoma L1210 [4]; Veh/decitabine 0.1 mg/kg PO (8 hr.), twice a day (8 hours apart), 4 days): 11.6 ± 0.55 days
% ILS (Increased Life Span) (murine lymphoma L1210 [4]; [10]): 45.00%
Mean Survival (days) ± SD (murine lymphoma L1210 [4]; Veh/decitabine 0.1 mg/kg PO, twice a day (7 hours apart), 4 days): 11.8 ± 0.84 days
Estimated T1/2 of decitabine (cytidine deaminase (CDA); Decitabine in Tris-HCl buffer at 37° C. (absence of CDA)): 9 h
Estimated T1/2 of decitabine (cytidine deaminase (CDA); Decitabine with CDA and ER-876437 in Tris-HCl buffer at 37° C.): 9 h
half-life at 0.2 mM (cytidine deaminase (CDA); Tris-HCl buffer, Decitabine in Tris-HCl buffer at 37° C. (absence of CDA)): 9 h
half-life at 0.2 mM (cytidine deaminase (CDA); cytidine deaminase (CDA) in Tris-HCl buffer, Decitabine with CDA and ER-876437 in Tris-HCl buffer at 37° C.): 9 h
half-life at 0.2 mM (cytidine deaminase (CDA); cytidine deaminase (CDA) in Tris-HCl buffer, Decitabine with CDA in Tris-HCl buffer at 37° C.): ~0.383 h

SMILES: Nc1ccn([C@H]2C[C@H](O)[C@@H](CO)O2)c(=O)n1 [deoxycytidine]
Km (CDA): 19 ± 4 µM
